From publication PMC11477289, “Low-Basicity 5-HT6 Receptor Ligands from the Group of Cyclic Arylguanidine Derivatives and Their Antiproliferative Activity Evaluation” (International Journal of Molecular Sciences, 2024)

Tests used:
[1] = tested on: 1321N1 astrocytoma cell line; assay: Antiproliferative activity (MTS), 1321N1; details: Homo sapiens, 1321-N1, 72 h, read-out: IC50 Values 1321N1
[2] = tested on: U87MG glioblastoma cells; assay: Antiproliferative activity (MTS), U87MG; details: Homo sapiens, U-87 MG, 72 h, read-out: IC50 Values U87MG
[3] = tested on: normal human astrocytes (NHAs); assay: Activity on normal astrocytes (MTS), NHA; details: for IC50: Homo sapiens, Astrocyte, 72 h, read-out: IC50 Values NHA
[4] = tested on: AsPC-1 pancreas adenocarcinoma cell line; assay: Antiproliferative activity (MTS), AsPC-1; details: Homo sapiens, ASPC1, 72 h, read-out: IC50 Values AsPC-1
[5] = tested on: U-251 glioblastoma cells; assay: Antiproliferative activity (MTS), U-251; details: Homo sapiens, U-251, 72 h, read-out: IC50 Values U-251
[6] = molecular target: T1, human 5-HT6 (Homo sapiens, UniProt P50406); assay: [3H]-LSD radioligand binding assay, 5-HT6R; details: HEK293 expressing human 5-HT6R, read-out: 5-HT6 Ki
T1 construct: expressed in transfected cells
T1 sequence (P50406 whole entry): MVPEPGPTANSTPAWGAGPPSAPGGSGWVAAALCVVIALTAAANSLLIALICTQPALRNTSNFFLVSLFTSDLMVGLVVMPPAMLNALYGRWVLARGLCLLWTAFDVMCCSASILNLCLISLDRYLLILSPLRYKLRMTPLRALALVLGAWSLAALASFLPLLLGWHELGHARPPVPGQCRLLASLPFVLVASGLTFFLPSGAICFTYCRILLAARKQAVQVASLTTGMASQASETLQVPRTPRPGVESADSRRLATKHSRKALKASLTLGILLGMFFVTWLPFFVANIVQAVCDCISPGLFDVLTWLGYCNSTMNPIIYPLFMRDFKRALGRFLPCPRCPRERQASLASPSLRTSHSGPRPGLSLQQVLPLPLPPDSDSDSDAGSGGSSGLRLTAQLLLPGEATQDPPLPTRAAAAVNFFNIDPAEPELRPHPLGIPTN
Protocol: Next, the ligands’ affinity for the 5-HT6 receptors was evaluated in the [^3H]-LSD radioligand binding assay. Experiments were performed in a stable HEK293 cell line expressing the human 5-HT6R.
The pellets were stored at −80 °C.

[7] = tested on: MCF7 breast carcinoma cell line; assay: Antiproliferative activity (MTS), MCF7; details: Homo sapiens, MCF7, 72 h, read-out: IC50 Values MCF7
[8] = tested on: LN-229 glioblastoma cell line; assay: Antiproliferative activity (MTS), LN-229; details: Homo sapiens, LN-229, 72 h, read-out: IC50 Values LN-229
[9] = Metabolic stability in mouse liver microsomes (MLMs); format: in vitro ADME; details: mouse, mouse liver microsomes, 120 min
Protocol: The metabolic stability of PR 68, PR 73, and PR 76 were determined in mouse liver microsomes (MLMs).
The metabolic stability of PR 68 was estimated with mouse liver microsomes (MLMs) (Sigma-Aldrich, St. Louis, MO, USA). […] Cold methanol was then added to the reaction mixture to quench the reaction. The precipitated MLMs were centrifuged, and the supernatant was analyzed by LC/MS with a Waters ACQUITY™ TQD system with a TQ detector (Waters, Milford, USA).
(1 picture or pasted object on this page, not shown here)

[10] = molecular target: D2L receptor (Homo sapiens, UniProt P14416); assay: [3H]-raclopride radioligand binding assay, D2
Chain of D2L receptor (P14416 whole entry): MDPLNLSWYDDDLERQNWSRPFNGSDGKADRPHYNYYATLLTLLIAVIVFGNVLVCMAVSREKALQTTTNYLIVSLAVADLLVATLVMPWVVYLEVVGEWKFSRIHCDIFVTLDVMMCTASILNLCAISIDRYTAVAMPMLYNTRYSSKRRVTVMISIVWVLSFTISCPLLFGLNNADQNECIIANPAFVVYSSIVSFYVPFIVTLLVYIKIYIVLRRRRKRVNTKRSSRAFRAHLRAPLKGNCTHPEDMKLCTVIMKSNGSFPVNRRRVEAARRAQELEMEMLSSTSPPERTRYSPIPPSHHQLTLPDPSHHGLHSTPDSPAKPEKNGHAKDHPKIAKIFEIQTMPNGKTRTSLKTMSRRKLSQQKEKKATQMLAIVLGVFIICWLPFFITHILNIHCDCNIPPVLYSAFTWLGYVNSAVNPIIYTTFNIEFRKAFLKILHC

[11] = molecular target: T1, human 5-HT6; assay: Functional evaluation, cAMP (LANCE Ultra) in HEK293 cells; format: cell-based; details: for Kb: antagonist mode, cAMP induced by 5-CT 1000 nM
Protocol: The supernatant was aspirated, and the cell pellet was resuspended in a stimulation buffer (1 × HBSS, 5 mM HEPES, 0.5 mM IBMX, 0.1% BSA).
The functional properties of compounds were evaluated using the LANCE Ultra cAMP detection kit (PerkinElmer). […] To investigate the antagonist activity, dopamine for D2R was added at a concentration of 10 nM, and for cell lines with 5-HT7R, 5-HT1AR, or 5-HT6R, 5-CT concentrations were adjusted, being, respectively, 10, 100, and 1000 nM, according to the receptor subtype.
For the quantification of cAMP levels, cells (5 µL) were incubated with a 5 µL mixture of necessary compounds for 30 min at room temperature in a 384-well white opaque microtiter plate (PerkinElmer). After incubation, the reaction was stopped, and cells were lysed by the addition of a 10 µL working solution (5 µL Eu-cAMP and 5 µL ULight-anti-cAMP). The assay plate was incubated for 1 h at room temperature. The time-resolved fluorescence resonance energy transfer (TR-FRET) signal was detected by an Infinite M1000 Pro (Tecan, Männedorf, Switzerland) using instrument settings from the LANCE Ultra cAMP detection kit manual.

[12] = molecular target: 5-HT7b receptor (Homo sapiens, UniProt P34969); assay: [3H]-5-CT radioligand binding assay, 5-HT7
Chain of 5-HT7b receptor (P34969 1-432 limits assumed): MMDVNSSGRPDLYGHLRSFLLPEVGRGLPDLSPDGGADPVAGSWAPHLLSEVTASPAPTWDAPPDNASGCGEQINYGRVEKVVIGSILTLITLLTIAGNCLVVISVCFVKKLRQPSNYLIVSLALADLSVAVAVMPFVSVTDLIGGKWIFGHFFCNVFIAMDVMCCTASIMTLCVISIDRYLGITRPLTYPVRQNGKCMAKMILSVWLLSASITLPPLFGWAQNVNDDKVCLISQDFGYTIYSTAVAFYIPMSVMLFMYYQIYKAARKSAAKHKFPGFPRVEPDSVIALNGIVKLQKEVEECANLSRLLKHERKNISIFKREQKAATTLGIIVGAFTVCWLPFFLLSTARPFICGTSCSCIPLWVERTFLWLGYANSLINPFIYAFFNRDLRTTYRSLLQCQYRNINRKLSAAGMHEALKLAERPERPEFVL

[13] = molecular target: T2, 5-HT1A receptor (Homo sapiens, UniProt P08908); assay: [3H]-8-OHDPAT radioligand binding assay, 5-HT1A
T2 sequence (P08908 1-422): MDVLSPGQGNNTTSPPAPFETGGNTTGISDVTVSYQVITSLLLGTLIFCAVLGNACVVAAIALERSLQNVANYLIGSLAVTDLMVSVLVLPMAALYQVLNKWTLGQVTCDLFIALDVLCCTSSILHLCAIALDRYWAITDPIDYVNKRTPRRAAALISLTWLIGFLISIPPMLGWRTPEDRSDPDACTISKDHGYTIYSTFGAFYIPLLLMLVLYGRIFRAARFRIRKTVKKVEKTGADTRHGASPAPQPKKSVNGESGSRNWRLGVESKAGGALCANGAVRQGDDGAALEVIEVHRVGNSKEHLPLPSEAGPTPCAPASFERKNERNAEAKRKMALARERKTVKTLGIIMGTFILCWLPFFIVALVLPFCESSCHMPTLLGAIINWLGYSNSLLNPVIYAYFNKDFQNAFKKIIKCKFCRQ

[14] = tested on: HEK293; assay: Cytotoxic activity on HEK293; format: cell-based; details: Homo sapiens
From the text: Table 6 Extended receptor affinity study, with functional tests and cytotoxic activity of selected compounds on HEK293. | column: HEK293 / IC50 [µM]

[15] = PAMPA permeability test; format: in vitro ADME; details: PBS pH 7.4, 5 h, room temperature
Protocol: This test allows the determination of the compound’s passive diffusion through biological membranes.
Precoated PAMPA Plate System Gentest was obtained from Corning (Tewksbury, MA, USA). Test compounds and caffeine solutions (200 µM) were prepared in a PBS buffer (pH = 7.4) and then added to the PAMPA plate. The plate was incubated at room temperature for 5 h without agitation. Then, 150 µL was aspirated from both acceptor (A) and donor (D) wells and then diluted with a 150 µL internal standard (IS) solution. The concentrations of the tested compounds in wells A and D were estimated using an LC/MS Waters ACQUITY™ TQD system with a TQ detector (Waters, Milford, CT, USA). The values of Pe were estimated according to the exact formulas provided by Corning and previously described in the literature.
4. Absorption – PAMPA permeability test
*Permeability coefficient. Compound is permeable if Pe≥1.5×10-6 cm/s
**CFN = caffeine, well-permeable control
UPLC of Caffeine solution in PBS (pH=7.4) after 5h of incubation: acceptor well
(above), donor well (below). IS – internal standard.
UPLC of PR 68 solution in PBS (pH=7.4) after 5h of incubation: acceptor well (above),
donor well (below). IS – internal standard. […]

[16] = Affinity to phospholipids, IAM column (CHI IAM); format: physicochemical; details: IAM.PC.DD2 column, pH 7.4
[17] = Chromatographic hydrophobicity index on C18 column (lipophilicity); format: physicochemical
From the text: We began with an assay for lipophilicity, affinity for phospholipids (for 40 compounds), and drug binding to human serum albumin (HSA) (for 20 compounds), using chromatographic protocols developed by Valko [46] and implemented in our laboratory [47]. […] These methods allowed the determination of chromatographic hydrophobicity indices (CHIs), binding to HSA (%HSA), and phospholipids (CHIIAM) using a single-gradient elution experiment and comparison to reference substances.
The mobile phase flow rate was 1.5 mL/min, and the column was maintained at 30 °C. • Chiralpak® HSA (50 mm × 4 mm; 5 µm with safety guard column; Daicel Chiral Technologies, West Chester, PA, USA), mobile phase A: 50 mM ammonium acetate, mobile phase B: HPLC-grade isopropanol (VWR International, Leuven, Belgium). For the first 15 min, the linear gradient from 0 to 20% isopropanol was applied and then held at 20% isopropanol for 12 min. In the last 5 min of the sequence, the mobile phase mixture received a pure ammonium acetate solution. The column temperature was held at 30 °C, whereas the flow rate was 0.9 mL/min.
The reference substances for the calibration of HSA, C18, and IAM columns were purchased, respectively: acetanilide, butyrophenone, diclofenac, and octanonophenone (Alfa Aesar, Haverhill, MA, USA); acetophenone, benzimidazole, colchicine, indole, indometacin, paracetamol, and theophylline (Sigma-Aldrich, Steinheim, Germany); nicardipine and nizatidine (Cayman Chemical, Ann Arbor, MI, USA); carbamazepine, heptanophenone, hexanophenone, propiophenone, and valerophenone (Acros Organic, Pittsburg, PA, USA). Before chromatographic experiments, solutes were dissolved in dimethyl sulfoxide (Avantor Performance Materials Poland S.A., Gliwice, Poland) to obtain a 200 µg/mL concentration. The detection was performed in the UV region at the wavelength from 190 nm to 300 nm. The injected volume was 5 μL, and each compound was analyzed in triplicate.

[18] = molecular target: human serum albumin (HSA) (Homo sapiens, UniProt P02768); assay: Binding to HSA, Chiralpak HSA column; details: Chiralpak HSA column
Chain of human serum albumin (HSA) (P02768 25-609): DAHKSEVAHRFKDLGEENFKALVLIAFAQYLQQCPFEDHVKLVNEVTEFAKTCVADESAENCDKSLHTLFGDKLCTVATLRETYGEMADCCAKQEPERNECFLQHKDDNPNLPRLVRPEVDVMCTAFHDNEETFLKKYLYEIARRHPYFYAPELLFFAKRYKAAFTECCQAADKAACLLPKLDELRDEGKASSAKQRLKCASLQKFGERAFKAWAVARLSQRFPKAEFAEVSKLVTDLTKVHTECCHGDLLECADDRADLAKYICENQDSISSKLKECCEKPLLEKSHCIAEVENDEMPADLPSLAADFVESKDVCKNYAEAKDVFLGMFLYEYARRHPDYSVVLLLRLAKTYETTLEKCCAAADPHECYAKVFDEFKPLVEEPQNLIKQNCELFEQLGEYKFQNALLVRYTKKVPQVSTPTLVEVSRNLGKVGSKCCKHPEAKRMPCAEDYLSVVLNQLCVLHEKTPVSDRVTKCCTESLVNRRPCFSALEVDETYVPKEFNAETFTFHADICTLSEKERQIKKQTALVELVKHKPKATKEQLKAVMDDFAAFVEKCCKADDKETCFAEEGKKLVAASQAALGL
Method in brief: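 HSA binding (%HSA) was estimated by HPLC on a Chiralpak HSA column at 30 °C and 0.9 mL/min. The gradient ran 0–20% isopropanol in 50 mM ammonium acetate over 15 min, then held 12 min. UV detection covered 190–300 nm, and values were calibrated against reference compounds, in triplicate.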

SMILES: CN(C)c1ccc2c(c1)CNC(NS(=O)(=O)c1cccc3ccccc13)=N2 [PR 64, N -[6-(dimethylamino)-3,4-dihydroquinazolin-2-yl]naphthalene-1-sulfonamide]
- IC50 [1]: > 25 µM
- IC50 [2]: > 25 µM
- IC50 [3]: 15.1 ± 2.1 µM
- selectivity index ([3]; activity on NHA compared to U-251 cells): 1.96
- melting point: 216 to 222 °C
- IC50 [4]: > 25 µM
- IC50 [5]: 7.7 ± 0.8 µM
- Ki [6]: 851 ± 192 nM
- IC50 [7]: 9.7 ± 1.7 µM
- IC50 [8]: > 25 µM

SMILES: CC1c2ccccc2N=C(NS(=O)(=O)c2cccc3ccccc23)N1C (stereo not shown) [PR 76, N -(3,4-dimethyl-3,4-dihydroquinazolin-2-yl)naphthalene-1-sulfonamide]
- remaining at 2 h, 50 µM [9]: 87.4%
- IC50 [1]: > 25 µM
- IC50 [2]: > 25 µM
- Ki [10]: 174 µM
- melting point: 215 to 217 °C
- IC50 [4]: > 25 µM
- IC50 [5]: > 25 µM
- Ki [6]: 103 ± 25 nM
- IC50 [7]: > 25 µM
- EC50 ([11]; agonist mode, cAMP): 199 nM
- function at 5-HT6R ([11]; cAMP): agonist
- Ki [12]: 35.6 µM
- Ki [13]: 11 µM
- IC50 [8]: > 25 µM

SMILES: CN(C)C/C=C/C(=O)Nc1cc2c(Nc3ccc(F)c(Cl)c3)ncnc2cc1O[C@H]1CCOC1 [Afatinib, reference compound]
- IC50 [3]: 7.5 µM
- IC50 [5]: 27 µM
- IC50 [7]: 25.9 µM
- IC50 [8]: 9.8 µM

SMILES: O=S(=O)(NC1=Nc2c(Cl)cccc2CN1)c1cccc2ccccc12 [PR 49, N -(8-chloro-3,4-dihydroquinazolin-2-yl)naphthalene-1-sulfonamide]
- IC50 [1]: > 25 µM
- IC50 [2]: > 25 µM
- melting point: 250 to 256 °C
- IC50 [4]: > 25 µM
- IC50 [5]: > 25 µM
- Ki [6]: 77 ± 18 nM
- IC50 [7]: > 25 µM
- Kb [11]: 81 nM
- IC50 [14]: 38.8 µM
- Ki [12]: 142 µM
- Ki [13]: 207 µM
- IC50 [8]: > 25 µM

SMILES: Cn1c(=O)c2c(ncn2C)n(C)c1=O [caffeine, reference compound]
- Papp at 5 h, 200 µM ([15]; PAMPA, read-out: PAMPA Pe): 8.23 ×10⁻⁶ cm/s
- PAMPA Pe [15]: 8.23 10^−6 cm/s

SMILES: CC1OC(NS(=O)(=O)c2cccc3ccccc23)=Nc2ccccc21 (stereo not shown) [PR 77, N -(4-methyl-4H-3,1-benzoxazin-2-yl)naphthalene-1-sulfonamide]
- IC50 [1]: > 25 µM
- IC50 [2]: > 25 µM
- CHI IAM [16]: 40.8
- Ki [10]: 222 µM
- melting point: 229 to 233 °C
- CHI C18 pH 2.6 [17]: 102.5
- CHI C18 pH 7.4 [17]: 99.9
- CHI C18 pH 10.5 [17]: 103.2
- IC50 [4]: > 25 µM
- IC50 [5]: > 25 µM
- Ki [6]: 373 ± 92 nM
- IC50 [7]: > 25 µM
- %HSA [18]: 95.9%
- logKHSA [18]: 1.3
- Ki [12]: 56.7 µM
- Ki [13]: 7.54 µM
- IC50 [8]: > 25 µM

SMILES: O=S(=O)(NC1=Nc2ccccc2CN1)c1cccc(Cl)c1 [PR 19, 3-chloro-N-(3,4-dihydroquinazolin-2-yl)benzene-1-sulfonamide]
- IC50 [1]: > 25 µM
- IC50 [2]: > 25 µM
- CHI IAM [16]: 36.6
- melting point: 176 to 180 °C
- CHI C18 pH 2.6 [17]: 83.7
- CHI C18 pH 7.4 [17]: 83.2
- CHI C18 pH 10.5 [17]: 87.3
- IC50 [4]: > 25 µM
- IC50 [5]: > 25 µM
- Ki [6]: 521 ± 130 nM
- IC50 [7]: > 25 µM
- %HSA [18]: 91.3%
- logKHSA [18]: 1.0
- IC50 [8]: > 25 µM

SMILES: CC1NC(NS(=O)(=O)c2cccc3ccccc23)=Nc2c(Cl)cccc21 (stereo not shown) [PR 71, N -(8-chloro-4-methyl-3,4-dihydroquinazolin-2-yl)naphthalene-1-sulfonamide]
- IC50 [1]: > 25 µM
- IC50 [2]: > 25 µM
- CHI IAM [16]: 44.8
- Ki [10]: 142 µM
- melting point: 215 to 219 °C
- CHI C18 pH 2.6 [17]: 102.2
- CHI C18 pH 7.4 [17]: 100.7
- CHI C18 pH 10.5 [17]: 103.8
- IC50 [4]: > 25 µM
- IC50 [5]: > 25 µM
- Ki [6]: 61 ± 14 nM
- IC50 [7]: > 25 µM
- %HSA [18]: 97.5%
- logKHSA [18]: 1.4
- Kb [11]: 35 nM
- Ki [12]: 37.5 µM
- Ki [13]: 134 µM
- IC50 [8]: > 25 µM
